Measured values published in patent publication US20110039763A1, “TARGETED ANTIMICROBIAL MOIETIES” (C3 JIAN, INC., priority 2009, published 2011).
Entries after “also recorded” stand apart in the source; their conditions may differ.

Key:
[1] = test system: microorganisms; assay: Morphology, biofilm and growth disrupting peptides (Table 5); type: cell-based; parameters: key: A: Peptide aggregates; B: Less hyphal formation; Clumps; Diffuse clumps and small polyps; F: Diffuse growth; H: Thin; I: Growth inhibition; Microcolony formation; Rippled; Small polyps; Thick; W: Halo formation on top, microlonies on bottom
From the text: In certain embodiments peptides that induce alterations in phenotype or other biological activities can also be used as antimicrobial effector moieties.

[2] = test system: microorganisms; assay: Peptide activities: targeting/binding, antimicrobial, growth or phenotype altering (Tables 7, 8); type: cell-based; details: peptides having multiple activities
[3] = test system: microorganisms; assay: Targeting peptide binding to target microorganisms (Tables 3, 10, 12); details: microorganism(s) the targeting peptide binds, preferably 1x PBS
[4] = binding in aqueous buffers varied with peptide solubility
[5] = binding in aqueous buffers that varied with peptide solubility

For “GNVHPESDFHNLIQFIKTFLYFTIFFKYFL [PF-C290]”, which “Organism, effect” value ([1]; S. mutans) is on record?
Its value is “S. mutans (F)”.

And the Activities [2]?
Its Activities is “G B”.

What about the “Target(s)” value [3, 4] of the same substance?
Its value is “A. naeslundii; also recorded: F. nucleatum; also recorded: P. gingivalis; also recorded: S. mutans; also recorded: T. denticola”.

Which “Organism, effect: B. subtilis” value [1] does the source give for HCVIGNVVDIANLLKRRAVYRDIADVIKMR [PF-071] here?
The value was “B. subtilis (D)”.

What about the “Organism, effect: C. albicans” value ([1]; C. albicans) of the same substance?
The value was “C. albicans (B)”.

What about the “Organism, effect: C. jejuni” value ([1]; C. jejuni) of the same substance?
The value was “C. jejuni (A)”.

And the “Organism, effect: M. luteus” value [1]?
The value was “M. luteus (R)”.

What about the “Organism, effect: MRSA” value ([1]; MRSA) of the same substance?
The value was “MRSA (C)”.

And the “Organism, effect: S. epidermidis” value [1]?
The value was “S. epidermidis (R)”.

And the “Organism, effect: S. pneumoniae” value ([1]; S. pneumoniae)?
The value was “S. pneumoniae (A)”.

And the Activities [2]?
The Activities was “G B”.

And the “Target(s)” value [3, 5]?
The value was “S. epidermidis and E. coli and P. aeruginosa and C. albicans and MRSA and S. pneumoniae and E. faecalis”.

For HKNKLNIPHIKS [PF-477], which “Organism, effect” value ([1]; S. pneumoniae) is on record?
Its value is “S. pneumoniae (H)”.

And the Activities [2]?
Its Activities is “G B”.

And the “Target(s)” value [3, 4]?
Its value is “S. epidermidis; also recorded: M. luteus; also recorded: C. albicans; also recorded: S. pneumoniae; also recorded: C. jeikeium; also recorded: C. jejuni”.

Which results are given for KKFKIFVIINWFYHKYIILNFEENF [PF-C085]?
Organism, effect ([1]; S. mutans): S. mutans (F); Activities [2]: G B; Target(s) [3, 4]: A. naeslundii; also recorded: F. nucleatum; also recorded: P. gingivalis; also recorded: S. mutans; also recorded: T. denticola

Which results are given for LHVIRPRPELSELKFPITKILKVNKQGLKK [PF-752]?
Organism, effect ([1]; S. pneumoniae): S. pneumoniae (C); Activities [2]: G B; Target(s) [3, 4]: S. epidermidis and E. coli and MRSA and S. pneumoniae and E. faecalis

Which results are given for LIQKGLNQTFIVVIRLNNFIKKS [PF-013]?
Organism, effect: C. jeikeium ([1]; C. jeikeium): C. jeikeium (D); Organism, effect: M. luteus [1]: M. luteus (D); Organism, effect: MRSA ([1]; MRSA): MRSA (R); Organism, effect: S. epidermidis [1]: S. epidermidis (C); Activities [2]: G B; Target(s) [3, 5]: M. luteus and P. mirabilis and E. coli and P. aeruginosa and MRSA and S. pneumoniae and C. jeikeium and C. jejuni

“LMFFSENMDKRDTLSGKFRYFAGSKVIKLMNWLSENGK [PF-226]” was tested. Which “Organism, effect: M. luteus” value [1] did it give?
The value was “M. luteus (T)”.

What about the “Organism, effect: S. epidermidis” value [1] of the same substance?
The value was “S. epidermidis (C)”.

And the Activities [2]?
Its Activities is “G B”.

And the “Target(s)” value [3, 4]?
Its value is “A. baumannii”.

Which “Organism, effect” value ([1]; C. jeikeium) does the source give for LNFRAENKILEKIHISLIDTVEGSA [PF-575] here?
Its value is “C. jeikeium (A)”.

And the “Organism, effect” value ([1]; C. jejuni)?
The value was “C. jejuni (R)”.

And the “Organism, effect” value ([1]; P. aeruginosa)?
Its value is “P. aeruginosa (A)”.

What about the “Organism, effect” value ([1]; S. pneumoniae) of the same substance?
The value was “S. pneumoniae (A)”.

And the Activities [2]?
The Activities was “G B”.

And the “Target(s)” value [3, 4]?
The value was “M. luteus and E. coli and C. albicans and MRSA and S. pneumoniae and E. faecalis and C. jeikeium”.

How did the “Organism, effect: P. aeruginosa” value ([1]; P. aeruginosa) turn out when LSPRPIIVSRRSRADNNNDWSR [PF-143] was run?
The value was “P. aeruginosa (C)”.

And the Activities [2]?
Its Activities is “G B”.

What about the “Target(s)” value [3, 4] of the same substance?
The value was “S. epidermidis and MRSA and C. jeikeium”.

MQIFYIKTKIFLSFFLFLLIFSQCFYKIEE [PF-442] was tested. Which “Organism, effect” value ([1]; MRSA) did it give?
The value was “MRSA (M)”.

What about the “Organism, effect” value ([1]; S. pneumoniae) of the same substance?
The value was “S. pneumoniae (C)”.

What about the Activities [2] of the same substance?
The Activities was “G B”.

What about the “Target(s)” value [3, 4] of the same substance?
Its value is “S. epidermidis; also recorded: E. coli; also recorded: C. albicans; also recorded: S. pneumoniae; also recorded: E. faecalis”.

With “NTNDLLQAFELMGLGMAGVFIVLGILYIVAELLIKIFPVNN [PF-C194]” as the substance, how does the “Organism, effect” value ([1]; F. nucleatum) read?
The value was “F. nucleatum (T)”.

And the “Organism, effect” value ([1]; P. gingivalis)?
Its value is “P. gingivalis (T)”.

And the “Organism, effect” value ([1]; S. mutans)?
The value was “S. mutans (F)”.

What about the Activities [2] of the same substance?
The Activities was “G B”.

And the “Target(s)” value [3, 4]?
The value was “A. naeslundii; also recorded: F. nucleatum; also recorded: P. gingivalis; also recorded: S. mutans; also recorded: T. denticola”.

With “PF-002: peptide having multiple activities (NDDAQ; Peptide with targeting and/or antimicrobial activity)” as the substance, how does the “Organism, effect: B. subtilis” value [1] read?
The value was “B. subtilis (R)”.

What about the “Organism, effect: S. pneumoniae” value ([1]; S. pneumoniae) of the same substance?
Its value is “S. pneumoniae (H)”.

What about the Activities [2] of the same substance?
Its Activities is “G B”.

What about the “Target(s)” value [3, 5] of the same substance?
The value was “S. epidermidis; also recorded: P. mirabilis; also recorded: C. albicans; also recorded: C. jeikeium; also recorded: C. jejuni”.

Which results are given for “PF-003: peptide having multiple activities (MNNWIKVAQISVTVINEVIDIMKEKQNGGK; Peptide with targeting and/or antimicrobial activity)”?
Organism, effect: C. jeikeium ([1]; C. jeikeium): C. jeikeium (A); Organism, effect: M. luteus [1]: M. luteus (A); Organism, effect: MRSA ([1]; MRSA): MRSA (R); Organism, effect: S. epidermidis [1]: S. epidermidis (D); Activities [2]: G B; Target(s) [3, 5]: S. epidermidis and M. luteus and P. mirabilis and C. albicans and MRSA and C. jeikeium

What does the source list for “PF-008: peptide having multiple activities (MIEIGSIAYLNGGSKKYNHILNQENR; Peptide with targeting and/or antimicrobial activity)”?
Organism, effect: B. subtilis [1]: B. subtilis (D); Organism, effect: C. jejuni ([1]; C. jejuni): C. jejuni (R); Activities [2]: G B; Target(s) [3, 5]: S. epidermidis and M. luteus and MRSA and C. jejuni

Which results are given for “PF-009: peptide having multiple activities (SKKYNHILNQENR; Peptide with targeting and/or antimicrobial activity)”?
Organism, effect: S. epidermidis [1]: S. epidermidis (S); Activities [2]: G B; Target(s) [3, 5]: M. luteus; also recorded: P. mirabilis; also recorded: C. albicans

Which results are given for “PF-010: peptide having multiple activities (MDIDVNKLLQAFVYFKSFEKLRHNNS; Peptide with targeting and/or antimicrobial activity)”?
Organism, effect: C. jeikeium ([1]; C. jeikeium): C. jeikeium (A); Organism, effect: M. luteus [1]: M. luteus (A); Organism, effect: MRSA ([1]; MRSA): MRSA (R); Organism, effect: S. epidermidis [1]: S. epidermidis (S); Activities [2]: G B; Target(s) [3, 5]: S. epidermidis; also recorded: M. luteus; also recorded: E. coli; also recorded: C. albicans

“PF-011: peptide having multiple activities (MFCYYKQHKGDNFSIEEVKNIIADNEMKVN; Peptide with targeting and/or antimicrobial activity)” was tested. Which “Organism, effect: C. jeikeium” value ([1]; C. jeikeium) did it give?
The value was “C. jeikeium (C)”.

And the “Organism, effect: MRSA” value ([1]; MRSA)?
Its value is “MRSA (R)”.

What about the Activities [2] of the same substance?
Its Activities is “G B”.

And the “Target(s)” value [3, 5]?
Its value is “M. luteus; also recorded: E. coli; also recorded: P. aeruginosa; also recorded: S. pneumoniae; also recorded: C. jeikeium”.

Which results are given for “PF-015: peptide having multiple activities (SIDKRNLYNLKYYE; Peptide with targeting and/or antimicrobial activity)”?
Organism, effect: MRSA ([1]; MRSA): MRSA (W); Activities [2]: G B; Target(s) [3, 5]: E. faecalis; also recorded: C. jeikeium

Which “Organism, effect: MRSA” value ([1]; MRSA) does the source give for “PF-017: peptide having multiple activities (ESIIE; Peptide with targeting and/or antimicrobial activity)” here?
The value was “MRSA (M)”.

What about the Activities [2] of the same substance?
The Activities was “G B”.

And the “Target(s)” value [3, 5]?
Its value is “E. coli”.

For “PF-020: peptide having multiple activities (MKIILLLFLIFGFIVVVTLKSEHQLTLFSI; Peptide with targeting and/or antimicrobial activity)”, which “Organism, effect: M. luteus” value [1] is on record?
Its value is “M. luteus (C)”.

What about the “Organism, effect: MRSA” value ([1]; MRSA) of the same substance?
The value was “MRSA (C)”.

What about the “Organism, effect: S. epidermidis” value [1] of the same substance?
The value was “S. epidermidis (C)”.

And the “Organism, effect: S. mutans” value ([1]; S. mutans, class symbol)?
The value was “S. mutans (F)”.

And the “Organism, effect: S. pneumoniae” value ([1]; S. pneumoniae)?
Its value is “S. pneumoniae (D)”.

What about the Activities [2] of the same substance?
Its Activities is “G B”.

What about the “Target(s)” value [3, 5] of the same substance?
Its value is “S. epidermidis and M. luteus and C. albicans and MRSA and S. pneumoniae and E. faecalis”.
